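These data come from cells grown in 96-well plates and exposed to compound for 48 hours at five concentrations. GI50: concentration for 50% inhibition of growth. Definition used: TGI = concentration required for complete inhibition of growth.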
What was measured:
Experiment in all cases: NCI-60 cell line screen, 48 h
NCI-H23 lung = system: NCI-H23 lung
MDA-MB-435 = system: MDA-MB-435
SN12C renal = system: SN12C renal
OVCAR-8 ovarian = system: OVCAR-8 ovarian
SW-620 colon = system: SW-620 colon
NCI/ADR-RES ovarian = system: NCI/ADR-RES ovarian
MDA-MB-231 breast = system: MDA-MB-231 breast
HCT-15 colon = system: HCT-15 colon
HT29 colon = system: HT29 colon
A549 NSCLC = system: A549 NSCLC
NCI-H460 lung = system: NCI-H460 lung
SK-MEL-28 melanoma = system: SK-MEL-28 melanoma
COLO 205 colon = system: COLO 205 colon
MOLT-4 leukemia = system: MOLT-4 leukemia
SNB-75 CNS = system: SNB-75 CNS
SF-539 CNS = system: SF-539 CNS
SF-268 CNS = system: SF-268 CNS
RXF 393 renal = system: RXF 393 renal
SNB-19 CNS = system: SNB-19 CNS
CCRF-CEM leukemia = system: CCRF-CEM leukemia
ACHN renal = system: ACHN renal
HS 578T breast = system: HS 578T breast
MALME-3M melanoma = system: MALME-3M melanoma
KM12 colon = system: KM12 colon
A498 renal = system: A498 renal
UO-31 renal = system: UO-31 renal
M14 melanoma = system: M14 melanoma
SK-MEL-2 melanoma = system: SK-MEL-2 melanoma
UACC-257 melanoma = system: UACC-257 melanoma
HOP-62 NSCLC = system: HOP-62 NSCLC
UACC-62 melanoma = system: UACC-62 melanoma
OVCAR-5 ovarian = system: OVCAR-5 ovarian
SK-MEL-5 melanoma = system: SK-MEL-5 melanoma
U251 CNS = system: U251 CNS
RPMI-8226 leukemia = system: RPMI-8226 leukemia
NCI-H522 lung = system: NCI-H522 lung
K-562 leukemia = system: K-562 leukemia
EKVX NSCLC = system: EKVX NSCLC
OVCAR-3 ovarian = system: OVCAR-3 ovarian
HL-60(TB) leukemia = system: HL-60(TB) leukemia
786-0 renal = system: 786-0 renal
PC-3 prostate = system: PC-3 prostate
MCF7 breast = system: MCF7 breast
BT-549 breast = system: BT-549 breast
IGROV1 ovarian = system: IGROV1 ovarian
OVCAR-4 ovarian = system: OVCAR-4 ovarian
SF-295 CNS = system: SF-295 CNS
TK-10 renal = system: TK-10 renal
HCT-116 colon = system: HCT-116 colon
SR leukemia = system: SR leukemia
HOP-92 NSCLC = system: HOP-92 NSCLC
NCI-H226 lung = system: NCI-H226 lung
SK-OV-3 ovarian = system: SK-OV-3 ovarian
HCC-2998 colon = system: HCC-2998 colon
DU-145 prostate = system: DU-145 prostate
LOX IMVI melanoma = system: LOX IMVI melanoma
CAKI-1 renal = system: CAKI-1 renal

COc1ccc([As]=[As]c2ccc(OC)c(NCS(=O)(=O)O)c2)cc1NCS(=O)(=O)O (stereo not given)
GI50 (NCI-H23 lung): 2.57 µM
TGI (NCI-H23 lung): 8.62 µM
GI50 (MDA-MB-435): 2.03 µM
TGI (MDA-MB-435): 5.26 µM
GI50 (SN12C renal): 1.54 µM
TGI (SN12C renal): 3.34 µM
GI50 (OVCAR-8 ovarian): 2.48 µM
TGI (OVCAR-8 ovarian): 6.84 µM
GI50 (SW-620 colon): 1.17 µM
TGI (SW-620 colon): 3.04 µM
GI50 (NCI/ADR-RES ovarian): 3.49 µM
TGI (NCI/ADR-RES ovarian): 27.1 µM
GI50 (MDA-MB-231 breast): 1.56 µM
TGI (MDA-MB-231 breast): 3.4 µM
GI50 (HCT-15 colon): 1.47 µM
TGI (HCT-15 colon): 3.31 µM
GI50 (HT29 colon): 2.25 µM
TGI (HT29 colon): 5.37 µM
GI50 (A549 NSCLC): 3.04 µM
TGI (A549 NSCLC): 9.96 µM
GI50 (NCI-H460 lung): 3.49 µM
TGI (NCI-H460 lung): 12.2 µM
GI50 (SK-MEL-28 melanoma): 1.45 µM
TGI (SK-MEL-28 melanoma): 3 µM
GI50 (COLO 205 colon): 1.52 µM
TGI (COLO 205 colon): 3.46 µM
GI50 (MOLT-4 leukemia): 1.33 µM
TGI (MOLT-4 leukemia): 6.18 µM
GI50 (SNB-75 CNS): 1.27 µM
TGI (SNB-75 CNS): 2.8 µM
GI50 (SF-539 CNS): 1.39 µM
TGI (SF-539 CNS): 3.43 µM
GI50 (SF-268 CNS): 1.62 µM
TGI (SF-268 CNS): 4.12 µM
GI50 (RXF 393 renal): 1.41 µM
TGI (RXF 393 renal): 3.09 µM
GI50 (SNB-19 CNS): 1.82 µM
TGI (SNB-19 CNS): 3.68 µM
GI50 (CCRF-CEM leukemia): 0.415 µM
TGI (CCRF-CEM leukemia): 3.14 µM
GI50 (ACHN renal): 1.62 µM
TGI (ACHN renal): 3 µM
GI50 (HS 578T breast): 3.21 µM
TGI (HS 578T breast): > 100 µM
GI50 (MALME-3M melanoma): 1.41 µM
TGI (MALME-3M melanoma): 3.34 µM
GI50 (KM12 colon): 2.98 µM
TGI (KM12 colon): 10.5 µM
GI50 (A498 renal): 1.65 µM
TGI (A498 renal): 3.26 µM
GI50 (UO-31 renal): 1.46 µM
TGI (UO-31 renal): 3.16 µM
GI50 (M14 melanoma): 2.15 µM
TGI (M14 melanoma): 5.69 µM
GI50 (SK-MEL-2 melanoma): 1.91 µM
TGI (SK-MEL-2 melanoma): 4.54 µM
GI50 (UACC-257 melanoma): 1.62 µM
TGI (UACC-257 melanoma): 3.37 µM
GI50 (HOP-62 NSCLC): 2.4 µM
TGI (HOP-62 NSCLC): 5.9 µM
GI50 (UACC-62 melanoma): 1.86 µM
TGI (UACC-62 melanoma): 4.6 µM
GI50 (OVCAR-5 ovarian): 2.02 µM
TGI (OVCAR-5 ovarian): 4.22 µM
GI50 (SK-MEL-5 melanoma): 1.86 µM
TGI (SK-MEL-5 melanoma): 4.27 µM
GI50 (U251 CNS): 0.768 µM
TGI (U251 CNS): 2.25 µM
GI50 (RPMI-8226 leukemia): 0.926 µM
TGI (RPMI-8226 leukemia): 5.93 µM
GI50 (NCI-H522 lung): 0.324 µM
TGI (NCI-H522 lung): 1.53 µM
GI50 (K-562 leukemia): 0.615 µM
TGI (K-562 leukemia): 11.1 µM
GI50 (EKVX NSCLC): 1.36 µM
TGI (EKVX NSCLC): 7.26 µM
GI50 (OVCAR-3 ovarian): 1.57 µM
TGI (OVCAR-3 ovarian): 3.06 µM
GI50 (HL-60(TB) leukemia): 1.51 µM
TGI (HL-60(TB) leukemia): 11.7 µM
GI50 (786-0 renal): 1.63 µM
TGI (786-0 renal): 3.51 µM
GI50 (PC-3 prostate): 3.14 µM
TGI (PC-3 prostate): 11.7 µM
GI50 (MCF7 breast): 1.09 µM
TGI (MCF7 breast): 3.44 µM
GI50 (BT-549 breast): 1.11 µM
TGI (BT-549 breast): 2.45 µM
GI50 (IGROV1 ovarian): 1.19 µM
TGI (IGROV1 ovarian): 3.4 µM
GI50 (OVCAR-4 ovarian): 1.27 µM
TGI (OVCAR-4 ovarian): 2.6 µM
GI50 (SF-295 CNS): 3.01 µM
TGI (SF-295 CNS): 9.48 µM
GI50 (TK-10 renal): 1.86 µM
TGI (TK-10 renal): 3.55 µM
GI50 (HCT-116 colon): 1.7 µM
TGI (HCT-116 colon): 3.2 µM
GI50 (SR leukemia): 0.691 µM
TGI (SR leukemia): 4.88 µM
GI50 (HOP-92 NSCLC): 1.45 µM
TGI (HOP-92 NSCLC): 3.24 µM
GI50 (NCI-H226 lung): 4.07 µM
TGI (NCI-H226 lung): 17.3 µM
GI50 (SK-OV-3 ovarian): 10 µM
TGI (SK-OV-3 ovarian): 21.8 µM
GI50 (HCC-2998 colon): 2.67 µM
TGI (HCC-2998 colon): 8.8 µM
GI50 (DU-145 prostate): 3.56 µM
TGI (DU-145 prostate): 13.8 µM
GI50 (LOX IMVI melanoma): 1.34 µM
TGI (LOX IMVI melanoma): 4.49 µM

S=c1ncc2n[nH]nc2[nH]1
TGI (NCI-H23 lung): > 100 µM
TGI (MDA-MB-435): > 100 µM
TGI (SN12C renal): > 100 µM
TGI (OVCAR-8 ovarian): > 100 µM
TGI (SW-620 colon): > 100 µM
TGI (NCI/ADR-RES ovarian): > 100 µM
TGI (MDA-MB-231 breast): > 100 µM
TGI (HCT-15 colon): > 100 µM
TGI (HT29 colon): > 100 µM
TGI (A549 NSCLC): > 100 µM
TGI (NCI-H460 lung): > 100 µM
TGI (SK-MEL-28 melanoma): > 100 µM
TGI (COLO 205 colon): > 100 µM
TGI (MOLT-4 leukemia): > 100 µM
TGI (SNB-75 CNS): > 100 µM
TGI (SF-539 CNS): > 100 µM
TGI (SF-268 CNS): > 100 µM
TGI (RXF 393 renal): > 100 µM
TGI (SNB-19 CNS): > 100 µM
TGI (CCRF-CEM leukemia): > 100 µM
TGI (ACHN renal): > 100 µM
TGI (HS 578T breast): > 100 µM
TGI (MALME-3M melanoma): > 100 µM
TGI (KM12 colon): > 100 µM
TGI (A498 renal): > 100 µM
TGI (UO-31 renal): > 100 µM
TGI (UACC-257 melanoma): > 100 µM
TGI (HOP-62 NSCLC): > 100 µM
TGI (OVCAR-5 ovarian): > 100 µM
TGI (CAKI-1 renal): > 100 µM
TGI (SK-MEL-5 melanoma): > 100 µM
TGI (U251 CNS): > 100 µM
TGI (RPMI-8226 leukemia): > 100 µM
TGI (NCI-H522 lung): > 100 µM
TGI (K-562 leukemia): > 100 µM
TGI (EKVX NSCLC): > 100 µM
TGI (OVCAR-3 ovarian): > 100 µM
TGI (HL-60(TB) leukemia): > 100 µM
TGI (786-0 renal): > 100 µM
TGI (PC-3 prostate): > 100 µM
TGI (MCF7 breast): > 100 µM
TGI (BT-549 breast): > 100 µM
TGI (IGROV1 ovarian): > 100 µM
TGI (OVCAR-4 ovarian): > 100 µM
TGI (SF-295 CNS): > 100 µM
TGI (TK-10 renal): > 100 µM
TGI (HCT-116 colon): > 100 µM
TGI (SR leukemia): > 100 µM
TGI (HOP-92 NSCLC): > 100 µM
TGI (NCI-H226 lung): > 100 µM
TGI (HCC-2998 colon): > 100 µM
TGI (DU-145 prostate): > 100 µM
TGI (LOX IMVI melanoma): > 100 µM
